We go through 4 compounds from ChEMBL document CHEMBL4334531, “Kalshinoids A-F, Anti-inflammatory Sesquiterpenes from Kalimeris shimadae” (J Nat Prod, 2019).

Activity calls are given as the source filed them. The rule behind the calls is not given here.

In series [1] the test system is THP-1. The series is described as follows: Cytotoxicity against human THP1 cells assessed as reduction in cell viability after 72 hrs by SRB assay. The following applies: THP-1, 72 h. The format is cell-based. A general note: Sulforhodamine B stains cellular protein and so reports cell mass.
Series [2] is described as follows: Cytotoxicity against human THP1 cells assessed as cell viability at 40 uM after 72 hrs by SRB assay relative to control. The format is cell-based. The following applies: THP-1 cells, read-out: Activity.
Series [3] deals with THP-1. Put plainly: Antiinflammatory activity against human THP1 cells assessed as inhibition of LPS-induced TNFalpha production by measuring TFNalpha level at 10 uM preincubated for 4 hrs followed by LPS challenge and measured after 24 hrs incubation by ELISA. Type of series: functional. Background: An ELISA detects its analyte on a solid surface through an enzyme-linked reagent.

For series [4], the system named is THP-1. The series is described as follows: Antiinflammatory activity against human THP1 cells assessed as inhibition of LPS-induced TNFalpha production preincubated for 4 hrs followed by LPS challenge and measured after 24 hrs incubation by ELISA. Type of series: functional, cell-based.
The subject of series [5] is THP-1. The series is described as follows: Antiinflammatory activity against human THP1 cells assessed as inhibition of LPS-induced TNFalpha production by measuring TFNalpha level at 5 uM preincubated for 4 hrs followed by LPS challenge and measured after 24 hrs incubation by ELISA. The format is functional.
In series [6] the test system is THP-1. Put plainly: Antiinflammatory activity against human THP1 cells assessed as inhibition of LPS-induced TNFalpha production at 200 uM preincubated for 4 hrs followed by LPS challenge and measured after 24 hrs incubation by ELISA. The format is functional, cell-based.

`C=C1CC[C@@H](O)[C@]2(C)CC[C@@](O)(C(C)(C)O)C[C@@H]12`: the IC50 in the series on THP-1 [1] is over 40 µM. The viability at 72 h, 40 µM in series [2] was over 80%. For the same compound, the Activity in the series on THP-1 [3] is 328.9 pg/mL; in the series with THP-1 [5], 394.3 pg/mL. The inhibition entry with THP-1 [4] was “Dose-dependent effect”.
Consider `COC(C)(C)C1=CC[C@@](C)(O)[C@H]2CC[C@](C)(O)[C@H]2C1`, for which the 50% inhibitory concentration (IC50) with THP-1 [1] was over 40 µM. For the same compound, the viability at 72 h, 40 µM in series [2] was over 80%. The Activity is 722.2 pg/mL in the series on THP-1 [3] and 801.6 pg/mL in the series on THP-1 [5]. In addition, the inhibition entry in the series on THP-1 [4] is “Dose-dependent effect”.
For `C[C@@H]1C[C@H]2[C@@H]3CCC4=CC(=O)C=C[C@]4(C)[C@@]3(F)[C@@H](O)C[C@]2(C)[C@@]1(O)C(=O)CO`, the inhibition result with THP-1 [6] is “Active”.
In the case of `CC(C)(O)C1=CC[C@@](C)(O)[C@H]2CC[C@@](C)(O)[C@H]2C1`, the IC50 in the series on THP-1 [1] is over 40 µM. Moreover, the viability at 72 h, 40 µM in series [2] is over 80%. The Activity with THP-1 [3] was determined as 241.7 pg/mL; in the series with THP-1 [5], 699.2 pg/mL. Also, the inhibition entry with THP-1 [4] was “Dose-dependent effect”.

Usually IC50 stands for the concentration that gives 50% inhibition.
